One may read the IC50 as the concentration that gives 50% inhibition.

The structures appear in SMILES notation. Counter-ions that a name gives are not always drawn. Bounds are passed on as bounds.

This note sets out measurements from patent US5981562A, “Inhibitors of farnesyl-protein transferase” (Merck & Co., Inc., priority 1997, dated 1999).

This experiment deals with T1, human FPTase (Homo sapiens, UniProt P49354+P49356).
T1 construct: made in house
Nature of the experiment: In vitro inhibition of human farnesyl-protein transferase. It counts as biochemical. Conditions: [3H]-FPP, 100 nM Ras-CVIM, 30 min, read-out: IC50 against human FPTase.

On to `CC(=O)N(CCNc1cccc(Cl)c1)Cc1cncn1Cc1ccc(C#N)cc1` [Example 1, N-[1-(4-cyanobenzyl)-5-imidazolylmethyl]-N-[2-((3-chlorophenyl)amino)ethyl]acetamide dihydrochloride], for which the IC50 is under 10 µM.
